Results reported in PubChem BioAssay AID328 (DTP/NCI, 2004).
“And” between values parts separate entries of the source, which are not always exact repeats. Equal values may be shown once. Toxic doses and inconclusive results are not listed.

Tested on: BDF1 mice, P388 leukemia ip, median survival T/C
Experiment: NCI In Vivo Anticancer Drug Screen. Data for tumor model P388 Leukemia (intraperitoneal) in B6D2F1 (BDF1) mice
Conditions: endpoint: median survival time, higher = longer survival
Procedure, shortened: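 Antitumour effect was judged in vivo: survival in drug-treated mice, normalised to that of vehicle-dosed controls, gives the reported T/C.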

[1] = dose: 25.0 mg/kg/injection, schedule: Q01DX009 (ip), vehicle: Klucel (hydroxypropylcellulose) (HPC)
[2] = dose: 50.0 mg/kg/injection, schedule: Q01DX009 (ip), vehicle: Klucel (hydroxypropylcellulose) (HPC)
[3] = dose: 50.0 mg/kg/injection, schedule: Q04DX003 (ip), vehicle: Klucel (hydroxypropylcellulose) (HPC)
[4] = dose: 100.0 mg/kg/injection, schedule: Q04DX003 (ip), vehicle: Klucel (hydroxypropylcellulose) (HPC)
[5] = dose: 200.0 mg/kg/injection, schedule: Q04DX003 (ip), vehicle: Klucel (hydroxypropylcellulose) (HPC)
[6] = dose: 400.0 mg/kg/injection, schedule: Q04DX003 (ip), vehicle: Klucel (hydroxypropylcellulose) (HPC)
[7] = dose: 25.0 mg/kg/injection, schedule: Q01DX009 (ip), vehicle: saline with Tween-80
[8] = dose: 25.0 mg/kg/injection, schedule: Q04DX003 (ip), vehicle: saline with Tween-80
[9] = dose: 50.0 mg/kg/injection, schedule: Q01DX009 (ip), vehicle: saline with Tween-80
[10] = dose: 50.0 mg/kg/injection, schedule: Q04DX003 (ip), vehicle: saline with Tween-80
[11] = dose: 100.0 mg/kg/injection, schedule: Q01DX009 (ip), vehicle: saline with Tween-80
[12] = dose: 100.0 mg/kg/injection, schedule: Q04DX003 (ip), vehicle: saline with Tween-80
[13] = dose: 200.0 mg/kg/injection, schedule: Q01DX009 (ip), vehicle: saline with Tween-80
[14] = dose: 400.0 mg/kg/injection, schedule: Q01DX009 (ip), vehicle: saline with Tween-80
[15] = dose: 100.0 mg/kg/injection, schedule: Q01DX009 (ip), vehicle: Klucel (hydroxypropylcellulose) (HPC)

Q: For C/C(=C\c1ccccc1)[N+](=O)[O-], which T/C (dose: 4.0 mg/kg/injection, schedule: Q01DX009 (ip), vehicle: Klucel (hydroxypropylcellulose) (HPC)) is on record?
A: 101 % of control

Q: What about the T/C (dose: 6.2 mg/kg/injection, schedule: Q01DX009 (ip), vehicle: saline) of the same compound?
A: 90 % of control

Q: What about the T/C (dose: 6.25 mg/kg/injection, schedule: Q01DX009 (ip), vehicle: saline) of the same compound?
A: 100 % of control

Q: And the T/C (dose: 8.0 mg/kg/injection, schedule: Q01DX009 (ip), vehicle: Klucel (hydroxypropylcellulose) (HPC))?
A: 108 % of control

Q: What about the T/C (dose: 12.5 mg/kg/injection, schedule: Q01DX009 (ip), vehicle: saline) of the same compound?
A: 90 % of control and 105 % of control

Q: And the T/C [1]?
A: 100 % of control

Q: And the T/C (dose: 25.0 mg/kg/injection, schedule: Q01DX009 (ip), vehicle: saline)?
A: 90 % of control and 108 % of control and 119 % of control

Q: What about the T/C (dose: 25.0 mg/kg/injection, schedule: Q04DX003 (ip), vehicle: Klucel (hydroxypropylcellulose) (HPC)) of the same compound?
A: 113 % of control

Q: What about the T/C (dose: 30.0 mg/kg/injection, schedule: Q01DX009 (ip), vehicle: Klucel (hydroxypropylcellulose) (HPC)) of the same compound?
A: 118 % of control

Q: And the T/C (dose: 44.0 mg/kg/injection, schedule: Q01DX009 (ip), vehicle: Klucel (hydroxypropylcellulose) (HPC))?
A: 109 % of control

Q: And the T/C [2]?
A: 87 % of control

Q: What about the T/C (dose: 50.0 mg/kg/injection, schedule: Q01DX009 (ip), vehicle: saline) of the same compound?
A: 115 % of control and 123 % of control

Q: And the T/C [3]?
A: 113 % of control

Q: And the T/C (dose: 50.0 mg/kg/injection, schedule: Q04DX003 (ip), vehicle: saline)?
A: 100 % of control

Q: And the T/C (dose: 67.0 mg/kg/injection, schedule: Q01DX009 (ip), vehicle: Klucel (hydroxypropylcellulose) (HPC))?
A: 95 % of control

Q: And the T/C (dose: 100.0 mg/kg/injection, schedule: Q04DX003 (ip), vehicle: saline)?
A: 109 % of control

Q: What about the T/C (dose: 200.0 mg/kg/injection, schedule: Q04DX003 (ip), vehicle: saline) of the same compound?
A: 100 % of control

Q: And the T/C (dose: 400.0 mg/kg/injection, schedule: Q04DX003 (ip), vehicle: saline)?
A: 109 % of control

Q: Which results are given for COC(=O)C1=C(C)NC(=O)NC1c1ccccc1 (stereo not given)?
A: T/C (dose: 100.0 mg/kg/injection, schedule: Q01DX001 (ip), vehicle: saline with Tween-80): 100 % of control; T/C (dose: 200.0 mg/kg/injection, schedule: Q01DX001 (ip), vehicle: saline with Tween-80): 100 % of control; T/C (dose: 400.0 mg/kg/injection, schedule: Q01DX001 (ip), vehicle: saline with Tween-80): 100 % of control

Q: How did the T/C [4] turn out when O=Cc1[nH]c(=S)[nH]c(=O)c1Cc1ccccc1Cl was run?
A: 100 % of control

Q: What about the T/C [5] of the same compound?
A: 100 % of control

Q: What about the T/C [6] of the same compound?
A: 100 % of control

Q: Which T/C [7] does the source give for O=C(Nc1ccccc1)C1=C(Nc2ccccc2)CSC1 here?
A: 100 % of control

Q: And the T/C [8]?
A: 99 % of control

Q: What about the T/C [9] of the same compound?
A: 91 % of control

Q: And the T/C [10]?
A: 99 % of control

Q: What about the T/C [11] of the same compound?
A: 94 % of control

Q: And the T/C [12]?
A: 96 % of control

Q: And the T/C [13]?
A: 102 % of control

Q: What about the T/C (dose: 200.0 mg/kg/injection, schedule: Q04DX003 (ip), vehicle: saline with Tween-80) of the same compound?
A: 105 % of control

Q: And the T/C [14]?
A: 110 % of control

Q: What about the T/C (dose: 400.0 mg/kg/injection, schedule: Q04DX003 (ip), vehicle: saline with Tween-80) of the same compound?
A: 103 % of control

Q: How did the T/C [9] turn out when CCOc1ncc([N+](=O)[O-])c(OCC)n1 was run?
A: 101 % of control

Q: What about the T/C [11] of the same compound?
A: 106 % of control

Q: What about the T/C [13] of the same compound?
A: 108 % of control

Q: And the T/C [14]?
A: 106 % of control

Q: For O=C1C(N2CCN(CCO)CC2)=C(N2CC2)C(=O)C(N2CCN(CCO)CC2)=C1N1CC1, which T/C (dose: 0.25 mg/kg/injection, schedule: Q01DX009 (ip), vehicle: saline) is on record?
A: 241 % of control

Q: And the T/C (dose: 0.5 mg/kg/injection, schedule: Q01DX009 (ip), vehicle: saline)?
A: 241 % of control and 249 % of control

Q: What about the T/C (dose: 1.0 mg/kg/injection, schedule: Q01DX009 (ip), vehicle: saline) of the same compound?
A: 243 % of control

Q: What about the T/C (dose: 2.0 mg/kg/injection, schedule: Q01DX009 (ip), vehicle: saline) of the same compound?
A: 116 % of control

Q: Which results are given for c1ccc2c(c1)C1CC(N3CCCCC3)C2c2ccccc21 (stereo not given)?
A: T/C [15]: 90 % of control; T/C [4]: 95 % of control; T/C (dose: 200.0 mg/kg/injection, schedule: Q01DX009 (ip), vehicle: Klucel (hydroxypropylcellulose) (HPC)): 86 % of control; T/C [5]: 100 % of control; T/C (dose: 400.0 mg/kg/injection, schedule: Q01DX009 (ip), vehicle: Klucel (hydroxypropylcellulose) (HPC)): 90 % of control; T/C [6]: 91 % of control

Q: What does the source list for O=C(O)CSc1ccc(NC(=O)NC2CCCCC2)cc1?
A: T/C [11]: 105 % of control; T/C [13]: 115 % of control; T/C [14]: 105 % of control

Q: Which results are given for CC(CCl)OC(C)CCl (stereo not given)?
A: T/C (dose: 100.0 mg/kg/injection, schedule: Q04DX002 (ip), vehicle: saline): 106 % of control; T/C (dose: 200.0 mg/kg/injection, schedule: Q04DX002 (ip), vehicle: saline): 107 % of control; T/C (dose: 400.0 mg/kg/injection, schedule: Q04DX002 (ip), vehicle: saline): 107 % of control

Q: Which T/C (dose: 3.12 mg/kg/injection, schedule: Q01DX009 (ip), vehicle: Klucel (hydroxypropylcellulose) (HPC)) does the source give for CC(C)=CCc1c(O)ccc(C(=O)/C=C/c2ccccc2)c1O here?
A: 102 % of control

Q: What about the T/C (dose: 6.25 mg/kg/injection, schedule: Q01DX009 (ip), vehicle: Klucel (hydroxypropylcellulose) (HPC)) of the same compound?
A: 106 % of control

Q: And the T/C (dose: 12.5 mg/kg/injection, schedule: Q01DX009 (ip), vehicle: Klucel (hydroxypropylcellulose) (HPC))?
A: 116 % of control

Q: What about the T/C [1] of the same compound?
A: 100 % of control

Q: What about the T/C [2] of the same compound?
A: 90 % of control

Q: What about the T/C [15] of the same compound?
A: 90 % of control

Q: How did the T/C (dose: 100.0 mg/kg/injection, schedule: Q04DX002 (ip), vehicle: saline with Tween-80) turn out when Cc1noc2nc[nH]c(=O)c12 was run?
A: 107 % of control

Q: And the T/C (dose: 200.0 mg/kg/injection, schedule: Q04DX002 (ip), vehicle: saline with Tween-80)?
A: 106 % of control

Q: What about the T/C (dose: 400.0 mg/kg/injection, schedule: Q04DX002 (ip), vehicle: saline with Tween-80) of the same compound?
A: 94 % of control

Q: Which T/C [9] does the source give for Cc1cc(C)c[n+](C2=C([O-])C(=O)C([n+]3cc(C)cc(C)c3)=C([O-])C2=O)c1 here?
A: 97 % of control

Q: What about the T/C [11] of the same compound?
A: 97 % of control

Q: And the T/C [13]?
A: 95 % of control

Q: O=C(O)C1C(C(=O)O)C2(Cl)C(Cl)=C(Cl)C1(Cl)C2(Cl)Cl.[Co] (stereo not given) was tested. Which T/C [1] did it give?
A: 100 % of control

Q: And the T/C [2]?
A: 100 % of control

Q: With CC1(C)CN(Cc2ccccc2)C(C)(C)CN1N as the compound, how does the T/C (dose: 6.25 mg/kg/injection, schedule: Q01DX009 (ip), vehicle: saline with Tween-80) read?
A: 97 % of control

Q: And the T/C (dose: 12.5 mg/kg/injection, schedule: Q01DX009 (ip), vehicle: saline with Tween-80)?
A: 101 % of control

Q: What about the T/C (dose: 12.5 mg/kg/injection, schedule: Q04DX003 (ip), vehicle: saline with Tween-80) of the same compound?
A: 111 % of control

Q: And the T/C [7]?
A: 97 % of control

Q: And the T/C [8]?
A: 107 % of control

Q: And the T/C [9]?
A: 115 % of control

Q: And the T/C [10]?
A: 107 % of control

Q: And the T/C [12]?
A: 111 % of control

Q: What does the source list for CC12CCC3C(CCC4=CC(=O)C(C(O)(C(F)(F)F)C(F)(F)F)CC43C)C1CC(C(O)(C(F)(F)F)C(F)(F)F)C2=O (stereo not given)?
A: T/C (dose: 100.0 mg/kg/injection, schedule: Q01DX001 (sc), vehicle: steriod suspending solution): 100 % of control; T/C (dose: 200.0 mg/kg/injection, schedule: Q01DX001 (sc), vehicle: steriod suspending solution): 100 % of control; T/C (dose: 400.0 mg/kg/injection, schedule: Q01DX001 (sc), vehicle: steriod suspending solution): 95 % of control

Q: With COc1cc2c(cc1C(C)C)CCC1C(C)(C#N)CCCC21C (stereo not given) as the compound, how does the T/C [11] read?
A: 110 % of control

Q: And the T/C [13]?
A: 110 % of control

Q: What about the T/C [14] of the same compound?
A: 95 % of control

Q: What does the source list for CS(=O)(=NC(=S)Nc1ccccc1)c1ccccc1 (stereo not given)?
A: T/C (dose: 75.0 mg/kg/injection, schedule: Q01DX001 (ip), vehicle: other): 115 % of control; T/C (dose: 150.0 mg/kg/injection, schedule: Q01DX001 (ip), vehicle: other): 95 % of control; T/C (dose: 300.0 mg/kg/injection, schedule: Q01DX001 (ip), vehicle: other): 100 % of control

Q: What does the source list for O=C1c2ccccc2C(=O)c2c(NCCOCCO)ccc(NCCOCCO)c21?
A: T/C (dose: 25.0 mg/kg/injection, schedule: Q01DX005 (ip), vehicle: saline with Tween-80): 98 % of control; T/C (dose: 50.0 mg/kg/injection, schedule: Q01DX005 (ip), vehicle: saline with Tween-80): 94 % of control; T/C (dose: 100.0 mg/kg/injection, schedule: Q01DX005 (ip), vehicle: saline with Tween-80): 90 % of control; T/C (dose: 200.0 mg/kg/injection, schedule: Q01DX005 (ip), vehicle: saline with Tween-80): 102 % of control

Q: What does the source list for CN1OCC2CCCC(c3ccccc3)C21 (stereo not given)?
A: T/C [3]: 100 % of control; T/C [4]: 100 % of control; T/C [5]: 100 % of control

Q: CC(C)c1cc(C(C)C)n2nc(N)nc2n1 was tested. Which T/C [11] did it give?
A: 100 % of control

Q: What about the T/C [13] of the same compound?
A: 95 % of control

Q: What about the T/C [14] of the same compound?
A: 90 % of control
